Measured values: BindingDB's records for doi:10.1046/j.1471-4159.2000.0752590.x (F. Hoffmann-La Roche, 2000)

How the values were obtained:
[1] = target: Metabotropic glutamate receptor 5 (Homo sapiens, UniProt P41594)
[2] = target: Metabotropic glutamate receptor 1 (Homo sapiens, UniProt Q13255)
Metabotropic glutamate receptor 1, sequence (Q13255 whole entry): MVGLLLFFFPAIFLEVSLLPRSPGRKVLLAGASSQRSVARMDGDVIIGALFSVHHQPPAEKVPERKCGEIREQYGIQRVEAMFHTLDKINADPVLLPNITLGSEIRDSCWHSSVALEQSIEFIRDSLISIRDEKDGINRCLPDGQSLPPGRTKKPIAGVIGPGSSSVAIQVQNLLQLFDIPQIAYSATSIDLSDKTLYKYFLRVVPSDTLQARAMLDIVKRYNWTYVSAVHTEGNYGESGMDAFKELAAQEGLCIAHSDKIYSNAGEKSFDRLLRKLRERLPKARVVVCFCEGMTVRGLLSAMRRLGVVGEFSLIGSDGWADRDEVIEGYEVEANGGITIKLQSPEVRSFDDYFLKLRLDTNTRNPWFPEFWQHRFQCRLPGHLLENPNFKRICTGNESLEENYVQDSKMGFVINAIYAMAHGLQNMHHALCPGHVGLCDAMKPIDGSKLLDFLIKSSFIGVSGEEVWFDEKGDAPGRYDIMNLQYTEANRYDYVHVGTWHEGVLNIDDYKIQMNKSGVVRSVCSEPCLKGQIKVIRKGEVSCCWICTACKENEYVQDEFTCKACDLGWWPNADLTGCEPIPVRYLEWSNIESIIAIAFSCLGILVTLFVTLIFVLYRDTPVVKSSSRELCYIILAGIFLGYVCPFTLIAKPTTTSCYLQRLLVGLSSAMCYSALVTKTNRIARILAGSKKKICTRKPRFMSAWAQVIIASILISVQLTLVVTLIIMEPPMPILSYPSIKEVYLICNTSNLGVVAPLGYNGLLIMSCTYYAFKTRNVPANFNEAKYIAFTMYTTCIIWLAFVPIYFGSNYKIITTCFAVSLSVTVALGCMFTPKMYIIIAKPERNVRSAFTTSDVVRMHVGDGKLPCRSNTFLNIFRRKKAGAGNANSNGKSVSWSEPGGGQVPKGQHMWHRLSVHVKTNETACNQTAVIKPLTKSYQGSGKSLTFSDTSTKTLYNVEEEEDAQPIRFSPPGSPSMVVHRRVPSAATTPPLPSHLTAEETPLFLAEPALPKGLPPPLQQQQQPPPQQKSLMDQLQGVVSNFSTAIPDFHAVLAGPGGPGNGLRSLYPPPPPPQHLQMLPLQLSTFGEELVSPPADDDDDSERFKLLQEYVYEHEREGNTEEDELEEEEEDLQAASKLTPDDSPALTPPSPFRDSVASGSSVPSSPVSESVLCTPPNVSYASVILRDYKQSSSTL

Metabotropic glutamate receptor 5, sequence (P41594 whole entry): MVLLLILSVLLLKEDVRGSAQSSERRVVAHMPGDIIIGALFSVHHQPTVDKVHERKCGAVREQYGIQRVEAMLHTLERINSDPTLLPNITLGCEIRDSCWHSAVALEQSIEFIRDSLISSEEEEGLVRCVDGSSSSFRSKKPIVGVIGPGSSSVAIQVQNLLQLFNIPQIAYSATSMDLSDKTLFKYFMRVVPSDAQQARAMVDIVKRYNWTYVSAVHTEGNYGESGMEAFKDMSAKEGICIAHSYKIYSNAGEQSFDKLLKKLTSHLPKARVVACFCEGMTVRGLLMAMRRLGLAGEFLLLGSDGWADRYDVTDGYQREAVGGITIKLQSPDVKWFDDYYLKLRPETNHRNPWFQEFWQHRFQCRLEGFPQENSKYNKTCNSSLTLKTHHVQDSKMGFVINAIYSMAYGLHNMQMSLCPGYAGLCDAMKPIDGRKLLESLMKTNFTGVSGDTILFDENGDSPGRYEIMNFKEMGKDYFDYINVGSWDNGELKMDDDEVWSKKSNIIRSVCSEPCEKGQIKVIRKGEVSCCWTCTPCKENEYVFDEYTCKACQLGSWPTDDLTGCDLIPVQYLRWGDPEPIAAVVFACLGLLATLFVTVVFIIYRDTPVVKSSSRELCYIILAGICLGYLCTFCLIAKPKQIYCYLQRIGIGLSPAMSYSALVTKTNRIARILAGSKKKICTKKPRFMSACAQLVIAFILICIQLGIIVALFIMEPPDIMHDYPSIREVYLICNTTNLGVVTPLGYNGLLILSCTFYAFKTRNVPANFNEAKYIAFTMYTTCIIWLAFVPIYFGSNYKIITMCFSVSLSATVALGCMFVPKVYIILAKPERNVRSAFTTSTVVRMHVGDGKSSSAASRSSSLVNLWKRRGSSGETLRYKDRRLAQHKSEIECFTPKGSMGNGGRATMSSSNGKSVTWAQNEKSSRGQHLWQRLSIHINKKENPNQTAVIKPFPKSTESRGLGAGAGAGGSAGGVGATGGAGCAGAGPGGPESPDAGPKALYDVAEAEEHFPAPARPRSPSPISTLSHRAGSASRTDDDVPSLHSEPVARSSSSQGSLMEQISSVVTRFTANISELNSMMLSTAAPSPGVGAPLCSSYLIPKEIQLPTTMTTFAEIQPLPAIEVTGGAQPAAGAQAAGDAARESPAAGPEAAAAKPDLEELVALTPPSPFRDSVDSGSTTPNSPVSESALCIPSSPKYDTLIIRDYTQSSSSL

In the case of `N[C@@H](CCP(=O)(O)O)C(=O)O`, the Ki [1] is reported as greater than 10 µM and the Ki [2] is reported as greater than 10 µM.
In the case of `NC(C(=O)O)c1ccc(C(=O)O)c(O)c1` (stereo unspecified), the Ki [1] is reported as 2.5 µM.
For `C[C@@](N)(C(=O)O)c1ccc(C(=O)O)cc1` (racemic), the Ki [1] was greater than 10 µM and the Ki [2] was greater than 10 µM.
Work on `NC1(C(=O)O)CCc2cc(C(=O)O)ccc21` (racemic) [AIDA] yielded a Ki [1] greater than 10 µM and a Ki [2] greater than 10 µM.
Work on `N[C@@]1(C(=O)O)CC[C@H](C(=O)O)C1` [1S, 3R-ACPD] yielded a Ki [1] of 2.1 µM.
`N[C@@H](Cn1oc(=O)[nH]c1=O)C(=O)O` [2-amino-3-(3,5-dioxo[1,2,4]oxadiazolidin-2-yl)propionic acid] was tested, and the Ki [1] was 0.029 µM.
For `Cc1cc(C(N)C(=O)O)ccc1C(=O)O` (stereo unspecified) [2Me4CPG], the Ki [1] was greater than 10 µM and the Ki [2] was 0.7 µM.
Molecule `Cc1onc(O)c1CC(N)C(=O)O` (stereo not drawn) [(RS)-2-amino-3-(3-hydroxy-5-methylisoxazol-4-yl)-propionicacid] has a Ki [1] greater than 10 µM and a Ki [2] greater than 10 µM.
Work on `N[C@H](C(=O)O)c1cccc(O)c1` [(S)-3-Hydroxyphenylglycine] yielded a Ki [1] of 8.4 µM and a Ki [2] greater than 10 µM.
For `N[C@@H](C(=O)O)c1ccc(C(=O)O)cc1` [(S)-4CPG], the Ki [1] was greater than 10 µM and the Ki [2] was 3.7 µM.
With `NC(C(=O)O)c1cc(=O)[nH]o1` (stereo unspecified) [Amino-(3-hydroxy-isoxazol-5-yl)-acetic acid(Ibotenic acid)] the Ki [1] was 1.9 µM and the Ki [2] was 1.2 µM.
With `N[C@H](CP(=O)(O)O)C(=O)O` [CAS_23052-80-4] the Ki [1] was greater than 10 µM and the Ki [2] was greater than 10 µM.
`Nc1nc(O)c2ncn(COC(CO)CO)c2n1` [CAS_82410-32-0] was tested, and the Ki [1] was 3.9 µM and the Ki [2] was 0.9 µM.
With `NC(C(=O)O)c1cc(O)ccc1Cl` (stereo unspecified) [CHPG] the Ki [1] was greater than 10 µM and the Ki [2] was greater than 10 µM.
For `N[C@H](C(=O)O)C1[C@@H](C(=O)O)[C@@H]1C(=O)O` (stereo partly specified) [DCG-IV], the Ki [1] was greater than 10 µM and the Ki [2] was greater than 10 µM.
`N[C@H](C(=O)O)[C@H]1C[C@H]1C(=O)O` [L-CCG-IV] showed a Ki [1] of 1.5 µM and a Ki [2] of 2.3 µM.
Molecule `O=c1nc2c3cc(-n4ccnc4)c([N+](=O)[O-])cc3[nH]c(=O)n2[nH]1` [Ro-48-8587] has a Ki [1] greater than 10 µM and a Ki [2] greater than 10 µM.
